Reference: US9655877B2, “Therapeutic methods for treating inflammation and immune system disorders” (priority 2009, dated 2017)
Several values for one entry are separate records, joined by “and”; a condition that tells them apart may be missing. Equal values may be shown once.

Legend:
[1] = system: nitrite production in BV-2 cells; experiment: LPS-induced nitrite (nitric oxide) production in BV-2 cells, Griess reagent; assay type: cell-based, murine; details: 100 ng/ml LPS, 1-50 μg/ml, 18 hours
Protocol: Nitrite levels in the culture media were determined using Griess reagent under manufacturer's instructions (Sigma Aldrich, St. Louis, Mo.). Fresh culture media were used as blanks and the nitrite levels were determined by using a standard sodium nitrite curve.
The effect of each extract on nitric oxide production is evaluated according to the procedures illustrated as follows. Briefly, murine microglia cell line BV-2 is maintained in Dulbecco's modified Eagle's minimum essential medium (DMEM) supplemented with 10% FBS and 1% penicillin and streptomycin (Invitrogen Life Technologies, Carlsbad, Calif.) at 37° C. in a humidified atmosphere with 5% CO2 in warm air.
0.1 M cells/ml BV-2 cells are seeded in 24-well plates (0.5 ml in each well). Cells are treated with 0.05% DMSO; 0.05% DMSO and 100 ng/ml LPS; or 100 ng/ml LPS and 50 μg/ml of an LCX extract for 18 hours, respectively. The culture supernatant is collected. The nitric oxide level is measured using the Griess reagent according to standard manufacturer's instructions (Sigma Aldrich, St. Louis, Mo.), and assessed using the standard sodium nitrite curve.
The effect of senkyunolide A (Sen A) and Z-ligustilide (Z-Lig) at various concentrations on LPS-induced nitrite production is further evaluated in this Example. Briefly, 0.1 M cells/ml BV-2 cells are seeded in 24-well plates (0.5 ml in each well). Cells are treated with 0.05% DMSO; 0.05% DMSO and 100 ng/ml LPS; 50 μg/ml Sen A/Z-Lig; or 100 ng/ml LPS and Sen A/Z-Lig at a concentration of 1 μg/ml, 5 μg/ml, 10 μg/ml, 25 μg/ml, and 50 μg/ml for 18 hours, respectively. The culture supernatant is collected. The nitric oxide level is measured using the Griess reagent according to standard manufacturer's instructions (Sigma Aldrich, St. Louis, Mo.), and evaluated using the standard sodium nitrite curve.

[2] = system: TNF-α production in human blood macrophages; experiment: LPS-induced TNF-α production in human blood macrophages (PBMac), ELISA; assay type: cell-based; details: 25 or 50 μg/ml for 24 hours, then 1 ng/ml LPS for 24 hours
Protocol: To measure the TNF-α level in cell culture supernatants, BV-2 cells were seeded at 1×10^5 cells/ml in the volume of 0.5 ml in 24-well culture plates. They were co-treated with or without 100 ng/ml LPS in the absence or presence of indicated concentrations of bioactive compounds of LCX for 18 h. In addition, PBMac cells were seeded at 1×10^6 cells/ml in the volume of 0.5 ml in 24-well plates. After incubation, the supernatants were collected and TNF-α levels were determined by ELISA according to the manufacturer's instructions (R&D Systems). […] To study the effect of Sen A and Z-Lig at various concentrations on TNF-α production, 1×10^6 cells/ml (FIG. 6) PBMac cells are seeded in 24-well plates (0.5 ml in each well). Cells are treated with 25 μg/ml or 50 μg/ml Sen A, Z-Lig, or DMSO for 24 hours prior to the addition of 1 ng/ml LPS, and further incubated for another 24 hours. The culture supernatants are collected and the level of secreted TNF-α is measured by ELISA according to the manufacturer's instructions (R&D Systems, Minneapolis, Minn.).

[3] = system: TNF-α protein production in BV-2 cells; experiment: LPS-induced TNF-α protein production in BV-2 cells, ELISA; assay type: cell-based, murine; details: 100 ng/ml LPS, 18 hours
Protocol: To measure the TNF-α level in cell culture supernatants, BV-2 cells were seeded at 1×10^5 cells/ml in the volume of 0.5 ml in 24-well culture plates. They were co-treated with or without 100 ng/ml LPS in the absence or presence of indicated concentrations of bioactive compounds of LCX for 18 h. In addition, PBMac cells were seeded at 1×10^6 cells/ml in the volume of 0.5 ml in 24-well plates. After incubation, the supernatants were collected and TNF-α levels were determined by ELISA according to the manufacturer's instructions (R&D Systems).
The role of senkyunolide A (Sen A) and Z-ligustilide (Z-Lig) in suppressing TNF-α production is further evaluated in this Example. Briefly, 5×10^4 cells/ml BV-2 cells are seeded in 24-well plates (0.5 ml in each well). Cells are treated with 0.05% DMSO; 0.05% DMSO and 100 ng/ml LPS; 50 μg/ml Sen A/Z-Lig; or 100 ng/ml LPS and Sen A/Z-Lig at a concentration of 1 μg/ml, 5 μg/ml, 10 μg/ml, 25 μg/ml, and 50 μg/ml for 18 hours, respectively. The culture supernatant is collected and the level of secreted TNF-α is measured by ELISA.

Neuro-2a cells [4] = experiment: Conditioned culture medium transfer model (LPS-treated BV-2 supernatant on Neuro-2a), MTT assay; assay type: cell-based, murine; details: supernatant of BV-2 cells treated with 100 ng/ml LPS and 50 μg/ml compound 18 h, on Neuro-2a 48 h; LPS only more than 40%
Protocol: BV-2 cells (3×10^5 cells/ml) were first treated with 100 ng/ml LPS for 18 h, in the presence of either 0.05% DMSO or 50 μg/ml senkyunolide A or Z-ligustilide. After centrifugation, the supernatants from BV-2 cells were transferred to Neuro-2a cells ([…]) for 48 h. Viability of Neuro-2a cells was measured using MTT assays. Results are shown as mean SD from three independent experiments. *p<0.05 compared with DMSO+LPS.
BV-2 cells were seeded at 3×10^5 cells/ml in 12-well culture plates (1 ml in each well). They were co-treated with or without 100 ng/ml LPS, in the presence of 0.05% DMSO, 50 μg/ml senkyunolide A, or 50 μg/ml Z-ligustilide, for 18 h. The supernatants were then collected and centrifuged at 13,200 rpm for 3 min. The resulting supernatants were then transferred to Neuro-2a cells (1×10^5 cells/ml in 24-well culture plates), which were incubated for another 48 h. Cell viability of Neuro-2a cells was measured by MTT assay.
Briefly, to investigate the physiological significance of Sen A and Z-Lig, a conditioned culture medium transfer model, commonly used for studying neuronal cell death induced by microglial activation, was adopted. After BV-2 cells were challenged with LPS, the supernatants were collected and centrifuged. The conditioned culture media were then transferred to Neuro-2a cell cultures.

Neuro-2a cells [5] = experiment: Neuro-2a cells treated with compound alone in the culture media; assay type: cell-based, murine; details: compound alone in the culture media (data not shown)
Source text: Specifically, a significant reduction in cell death, to less than 15% and 25%, respectively, was observed.

CCC/C=C1\OC(=O)C2=C1CCC=C2 [Z-ligustilide]
effect on nitrite production over concentrations [1]: inhibits nitrite production in a dose-dependent manner
effect on endotoxin-induced TNF-α production [2]: suppress endotoxin-induced TNF-α production in a dose-dependent manner
effect on TNF-α production over concentrations ([3]; 1-50 μg/ml): inhibits TNF-α production in a dose-dependent manner
concentration that significantly inhibits TNF-α production [3]: 10 µg/mL and > 10 µg/mL
cell death of Neuro-2a cells (Neuro-2a cells [4]): < 25%
cell death with compound alone (Neuro-2a cells [5]): did not show cell death
